Test results reported in ChEMBL document CHEMBL1201862, “PubChem BioAssay data set” (2004).
The source made the active and inactive calls.

Tests used:
[1] = reduced cellular PGC1a acetyl-lysine signal – cell-based, cherry-picked samples, dose response (AID 720514); format: functional;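 further: potency may reflect raised or lowered acetylation signal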
Albumin = Albumin (Bos taurus, UniProt P02769); assay: Counterscreen for inhibitors of T-cell receptor (TCR)-CD3 interaction: Fluorescence-based biochemical high throughput dose response assay to identify inhibitors of T-cell receptor (TCR)-CD3 interaction using a TAMRA-labeled BSA probe.; format: functional
Albumin, sequence (P02769 whole entry): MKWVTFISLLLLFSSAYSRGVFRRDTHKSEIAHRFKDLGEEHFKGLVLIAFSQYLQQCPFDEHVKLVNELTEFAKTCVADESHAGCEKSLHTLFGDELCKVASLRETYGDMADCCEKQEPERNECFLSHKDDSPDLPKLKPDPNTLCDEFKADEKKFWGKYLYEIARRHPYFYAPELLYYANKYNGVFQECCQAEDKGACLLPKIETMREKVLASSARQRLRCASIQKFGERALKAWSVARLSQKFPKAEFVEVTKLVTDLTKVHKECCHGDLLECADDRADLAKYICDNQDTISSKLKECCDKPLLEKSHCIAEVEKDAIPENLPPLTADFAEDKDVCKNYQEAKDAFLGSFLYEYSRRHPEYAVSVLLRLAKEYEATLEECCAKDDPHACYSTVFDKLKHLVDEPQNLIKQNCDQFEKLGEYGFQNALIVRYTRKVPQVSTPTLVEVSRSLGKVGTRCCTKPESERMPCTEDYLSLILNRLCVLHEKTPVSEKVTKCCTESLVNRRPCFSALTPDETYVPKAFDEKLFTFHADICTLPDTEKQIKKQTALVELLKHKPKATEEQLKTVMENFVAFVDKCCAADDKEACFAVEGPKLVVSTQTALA

[2] = L6 myocyte viability loss – cell-based, plate reader, cherry-pick, cytotoxicity control, dose response (AID 651896); format: functional
[3] = Inhibition of T. cruzi Tulahuen strain amastigotes in L-6 muscle cells Measured in Cell-Based and Microorganism Combination System Using Plate Reader - 2138-03_Inhibitor_Dose_CherryPick_Activity.; format: functional; details: Rattus norvegicus, L6
[4] = intracellular Trypanosoma cruzi inhibitors in host cells – cell-based, plate reader, cherry-pick samples, set 3, dose response (AID 651818); format: functional;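 further: compounds incubated with infected cells for about four days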
[5] = Inhibition of Plasmodium falciparum NF54 Measured in Cell-Based System Using Plate Reader - 2138-11_Inhibitor_Dose_CherryPick_Activity.; format: functional
[6] = antileishmanial activity on axenic amastigotes – plate reader, cherry pick, dose response (AID 651891); format: functional, cell-based; details: Leishmania donovani
[7] = African trypanosome bloodstream form growth inhibition – STIB900 strain, plate reader, cherry pick, dose response (AID 651893); format: functional, cell-based, Trypanosoma brucei rhodesiense; details: Trypanosoma brucei
[8] = activation of miR-122 Renilla sensor silencing – cell-based, Huh7 psiCHECK-miR122, Renilla luciferase, cherry-picked, dose response (AID 651956); format: functional;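 further: huh7 hepatoma cells stably carrying a psiCHECK-2 miR-122 sensor plasmid; renilla luciferase signal reporting endogenous miR-122 activity after 48 h compound exposure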
[9] = general mammalian cell viability loss – inhibitor set, cherry-pick, set 2, cytotoxicity control for miR-122 modulator project, dose response (AID 720697); format: functional, cell-based
[10] = target: DNA repair protein RAD52 homolog (Homo sapiens, UniProt P43351); format: functional, biochemical
DNA repair protein RAD52 homolog, sequence (P43351 whole entry): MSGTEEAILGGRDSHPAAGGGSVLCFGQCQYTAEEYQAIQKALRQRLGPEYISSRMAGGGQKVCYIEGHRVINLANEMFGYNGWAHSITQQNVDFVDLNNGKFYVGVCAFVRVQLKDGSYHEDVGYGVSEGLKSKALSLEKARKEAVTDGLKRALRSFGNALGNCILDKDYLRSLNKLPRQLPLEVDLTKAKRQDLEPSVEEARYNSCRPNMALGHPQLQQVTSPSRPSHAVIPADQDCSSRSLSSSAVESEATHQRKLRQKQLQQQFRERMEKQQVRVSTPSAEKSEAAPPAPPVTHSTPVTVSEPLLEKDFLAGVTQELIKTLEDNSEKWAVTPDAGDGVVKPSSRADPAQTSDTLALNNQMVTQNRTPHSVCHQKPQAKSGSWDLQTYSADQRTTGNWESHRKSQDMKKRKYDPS

HEK293 = assay: viability loss in HEK293T cells – cell-based, ATP luminescence, cherry-pick samples, cytotoxicity control, dose response (AID 687005); format: functional; details: Homo sapiens;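 further: cells exposed to compound for 48 hours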
[11] = HEK293 Cytotoxicity Assay Measured in Cell-Based System Using Plate Reader - 7071-01_Inhibitor_Dose_CherryPick_Activity_Set2.; format: functional
Paired box protein Pax-8 = Paired box protein Pax-8 (Homo sapiens, UniProt Q06710); assay: PAX8 transcriptional activity inhibition in RMG-I – RMG-I cells, luciferase, cherry-pick, dose response (AID 687027); format: functional, cell-based;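 further: luciferase reporter driven by Pax8 target thyroperoxidase promoter measured by SteadyGlo luminescence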
Paired box protein Pax-8, sequence (Q06710 whole entry): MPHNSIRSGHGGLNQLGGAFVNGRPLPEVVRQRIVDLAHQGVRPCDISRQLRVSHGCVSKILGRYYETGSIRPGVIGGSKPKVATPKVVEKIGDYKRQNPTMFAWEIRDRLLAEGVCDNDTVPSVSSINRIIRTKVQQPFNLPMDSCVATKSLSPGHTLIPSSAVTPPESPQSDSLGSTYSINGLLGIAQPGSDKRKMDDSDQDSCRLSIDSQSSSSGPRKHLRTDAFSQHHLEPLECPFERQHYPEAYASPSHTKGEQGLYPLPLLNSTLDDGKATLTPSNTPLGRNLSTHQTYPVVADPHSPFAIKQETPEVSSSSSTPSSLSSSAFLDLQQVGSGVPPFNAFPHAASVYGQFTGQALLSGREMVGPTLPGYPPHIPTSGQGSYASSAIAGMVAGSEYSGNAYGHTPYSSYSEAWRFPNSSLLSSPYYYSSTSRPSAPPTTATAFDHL

[12] = OVCAR8 cell viability loss – plate reader, dry powder samples, PAX8 project, dose response (AID 743197); format: functional, cell-based; details: OVCAR-8
[13] = OVCAR-3 cell viability loss – plate reader, dry powder samples, PAX8 inhibitor project, dose response (AID 743044); format: functional, cell-based
[14] = IGROV1 cell killing – plate reader, dry powder samples, PAX8 inhibitor project, dose response (AID 743043); format: functional, cell-based; details: IGROV-1
[15] = A2780 cell killing – plate reader, dry powder samples, cytotoxicity control, dose response (AID 743046); format: functional, cell-based
[16] = viability loss in HEK293 kidney cells – cell-based, cherry-picks, set 5, cytotoxicity control, dose response (AID 1053117); format: functional
[17] = Dd2 malaria parasite growth inhibition potency – SYBR Green, dry powder samples, dose response (AID 1159566); format: functional, cell-based;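 further: potency for growth inhibition with lower SYBR green DNA signal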
[18] = growth inhibition of yeast DHODH-expressing 3D7 parasites – SYBR Green, dry powder samples, dose response (AID 1159570); format: functional, cell-based;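 further: parasite growth measured after 72 hours of compound exposure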
[19] = toxicity to human HepG2 hepatoma cells – cell-based, plate reader, dry powder samples, cytotoxicity control, dose response (AID 1159569); format: functional;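 further: inhibitor potency with signal falling toward the positive control level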
[20] = growth inhibition of PfATP4-mutant resistant parasites – NITD609-resistant line, SYBR Green, dry powder, dose response (AID 1159571); format: functional, cell-based;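 further: parasites synchronized at ring stage by sorbitol before testing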
[21] = P. falciparum Dd2 growth inhibitors, dose response, SYBR Green, cherry-picked samples (AID 1159567); format: functional, cell-based

CCN(CC(=O)Nc1ccccc1C(F)(F)F)C(=O)CCSc1ccc(F)cc1
AC50 [1]: 27 µM (active)

Cc1cc(C)c(-c2cc(NC(=O)COC(=O)c3ccc(NC(=O)CC#N)cc3)n(-c3ccccc3)n2)cc1C
IC50 (Albumin): > 94.1 µM (inactive)

C[C@H](CO)N1C[C@H](C)[C@@H](CN(C)Cc2ccc(C(F)(F)F)cc2)Oc2c(NC(=O)c3ccncc3)cccc2C1=O
IC50 [2]: 36.1 µM (inactive)
IC50 [3]: 3.79 µM (inactive)
AC50 [4]: 0.105 µM (active)
IC50 [5]: 3.79 µM (inactive)
IC50 [6]: 41.4 µM (inactive)
IC50 [7]: 7.22 µM (inactive)

CCC(=O)N1[C@H](CO)[C@H](c2ccccc2)[C@H]1CN(C(C)C)S(C)(=O)=O
AC50 [8]: 35.4 µM (active)
AC50 [9]: 0.525 µM (active)

CCN1CCN(Cc2ccc(C(=O)Nc3ccc(C)c(NCc4cnc(NC(=O)OC)cn4)c3)cc2C(F)(F)F)CC1
AC50 [10]: 15.1 µM (active)

C[C@H]1CN([C@@H](C)CO)C(=O)c2cccc(NC(=O)c3ccncc3)c2O[C@H]1CN(C)Cc1ccc(-c2ccccc2)cc1
IC50 [2]: 47.5 µM (inactive)
IC50 [3]: 3.21 µM (inactive)
AC50 [4]: 0.08 µM (active)
IC50 [5]: 3.21 µM (inactive)
IC50 [6]: > 100 µM (inactive)
IC50 [7]: 11.2 µM (inactive)

O=C(C[C@@H]1CC[C@@H]2[C@H](COC[C@H](O)CN2S(=O)(=O)c2ccc(Oc3ccccc3)cc2)O1)NC1CCC1
AC50 (HEK293): > 52 µM (inactive)
AC50 [11]: > 52 µM (inactive)

C[C@@H]1CCCCO[C@H](CN(C)C(=O)C2CCCCC2)[C@@H](C)CN([C@@H](C)CO)C(=O)c2cc(NC(=O)Nc3ccc(F)cc3)ccc2O1
AC50 (Paired box protein Pax-8): 4.07 µM (active)
AC50 [12]: 69.9 µM (active)
AC50 [13]: 38.4 µM (active)
AC50 [14]: 63.4 µM (active)
AC50 [15]: 48.1 µM (active)

C[C@H]1CN([C@@H](C)CO)C(=O)c2cc(NS(=O)(=O)c3ccc(F)cc3)ccc2O[C@@H]1CN(C)S(=O)(=O)c1ccccc1
AC50 (HEK293): > 52 µM (inactive)
AC50 [11]: > 52 µM (inactive)

CCCNC(=O)N(C)C[C@H]1Oc2cc(C#CCC(C)C)ccc2S(=O)(=O)N([C@@H](C)CO)C[C@H]1C
AC50 [1]: 26.5 µM (active)

O=S(=O)(c1ccccc1F)N1CC[C@H]2[C@H](CO)Nc3ccc(-c4cccc(F)c4)cc3[C@H]21
AC50 [16]: 46.2 µM (active)

N#C[C@@H]1[C@@H](c2ccc(C3=CCCCC3)cc2)[C@H](CO)N1C(=O)NC1CCCC1
AC50 [17]: 1.46 µM (active)
AC50 [18]: 3.06 µM (active)
AC50 [19]: 35.6 µM (active)
AC50 [20]: 2.61 µM (active)
AC50 [21]: 2.28 µM (active)
